In patent US8642539B2, “Method for treating a disease characterized by reduced appetite” (Takeda Pharmaceutical Company Limited, priority 2007, dated 2014):
“Also recorded” adds a separate entry of the source.

Experiments:
[1] = biological target: GPR100 (Homo sapiens, UniProt Q8TDU9); conditions: mature Insl5; cited from earlier work
[2] = system: wt mice; test: Insl5 administered intraperitoneally, food intake in wt mice; format: in vivo; conditions: wt mice (129/SvEv), intraperitoneal, dose dependent; FIG. 9 upper panel
Method: (§1) To test the hypothesis that Insl5 is an orexigenic hormone directly, it was administered intraperitoneally to wt and GPR100−/− mice. […] Moreover, this effect is mediated through GPR100.

[3] = system: GPR100−/− mice; test: Insl5 administered intraperitoneally, feeding behaviour in GPR100−/− mice; format: in vivo; conditions: intraperitoneal, FIG. 9 lower panel
Method: as §1

Chain of GPR100 (Q8TDU9 whole entry, species assumed): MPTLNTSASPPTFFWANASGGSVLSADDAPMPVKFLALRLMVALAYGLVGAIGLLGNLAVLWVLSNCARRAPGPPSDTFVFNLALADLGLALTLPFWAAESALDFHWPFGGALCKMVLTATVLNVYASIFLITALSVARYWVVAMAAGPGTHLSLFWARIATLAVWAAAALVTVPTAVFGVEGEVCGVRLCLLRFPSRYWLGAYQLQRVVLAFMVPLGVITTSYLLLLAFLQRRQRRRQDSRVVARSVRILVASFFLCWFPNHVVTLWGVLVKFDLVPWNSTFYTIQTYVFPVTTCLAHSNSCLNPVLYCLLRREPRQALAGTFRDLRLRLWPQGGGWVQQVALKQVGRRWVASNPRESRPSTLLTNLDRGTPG

## insulin-like peptide 5 [Insl5, 45 amino acid residue mature peptide comprising an A chain and a B chain connected by disulfide bonds; endogenous ligand of GPR100]
[1]
  affinity in displacing relaxin-3 peptide from GPR100: high affinity, in the nanomolar range
[2]
  food intake: increase of food intake; also recorded: significant increase in food intake
[3]
  feeding behaviour: no effect on feeding behaviour
